Results as given in ChEMBL document CHEMBL1667798, “Synthesis of new isoxazoline-based acidic amino acids and investigation of their affinity and selectivity profile at ionotropic glutamate receptors” (Eur J Med Chem, 2011).

Experiments:
[1] = Displacement of [3H]KAIN from kainate receptor in Sprague-Dawley rat brain synaptic membrane after 60 mins by scintillation counting
Glutamate NMDA receptor [2] = test: Displacement of [3H]CGP 39653 from NMDA receptor in Sprague-Dawley rat brain synaptic membrane after 60 mins by scintillation counting
[3] = Displacement of [3H]AMPA from AMPA receptor in Sprague-Dawley rat brain synaptic membrane after 30 mins by scintillation counting
Glutamate NMDA receptor [4] = test: Displacement of [3H]CPP from NMDA receptor in Sprague-Dawley rat brain synaptic membrane after 60 mins by scintillation counting

Row | Compound | Ki [1] [µM] | Ki (Glutamate NMDA receptor [2]) [µM] | Ki [3] [µM] | Ki (Glutamate NMDA receptor [4]) [µM]
1 | C[C@@H]1ON=C(C(=O)O)[C@@H]1C[C@H](N)C(=O)O (racemic) | > 100 | 18 | > 100 | –
2 | N[C@H](C[C@H]1CC(C(=O)O)=NO1)C(=O)O (racemic) | > 100 | 0.21 | > 100 | –
3 | C[C@H]1C(C(=O)O)=NO[C@H]1C[C@@H](N)C(=O)O (racemic) | > 100 | 3 | 4.1 | –
4 | Cc1onc(C(=O)O)c1CC(N)C(=O)O (racemic) | 6.3 | – | 0.02 | > 100
5 | N[C@@H](C[C@H]1CC(C(=O)O)=NO1)C(=O)O (racemic) | > 100 | 0.96 | > 100 | –

More lines, now with the values ahead:

Row | Ki [1] [µM] | Ki (Glutamate NMDA receptor [2]) [µM] | Ki [3] [µM] | Ki (Glutamate NMDA receptor [4]) [µM] | Compound
6 | > 100 | – | > 100 | – | N[C@@]1(C(=O)O)C[C@@H]2ON=C(C(=O)O)[C@@H]2C1 (racemic)
7 | > 100 | 60 | > 100 | – | C[C@@H]1ON=C(C(=O)O)[C@@H]1C[C@@H](N)C(=O)O (racemic)
8 | 56 | 5.1 | 31 | – | C[C@H]1C(C(=O)O)=NO[C@H]1C[C@H](N)C(=O)O (racemic)
